From ChEMBL document CHEMBL2069292, “Dammarane glycosides from the root of Machilus yaoshansis” (J Nat Prod, 2012)
Calls of active or inactive are those of the source.

Legend:
[1] = target: T1, Tyrosine-protein phosphatase non-receptor type 1 (Homo sapiens) (UniProt P18031); experiment: Inhibition of human PTP1B at 10 uM
T1 sequence (whole entry): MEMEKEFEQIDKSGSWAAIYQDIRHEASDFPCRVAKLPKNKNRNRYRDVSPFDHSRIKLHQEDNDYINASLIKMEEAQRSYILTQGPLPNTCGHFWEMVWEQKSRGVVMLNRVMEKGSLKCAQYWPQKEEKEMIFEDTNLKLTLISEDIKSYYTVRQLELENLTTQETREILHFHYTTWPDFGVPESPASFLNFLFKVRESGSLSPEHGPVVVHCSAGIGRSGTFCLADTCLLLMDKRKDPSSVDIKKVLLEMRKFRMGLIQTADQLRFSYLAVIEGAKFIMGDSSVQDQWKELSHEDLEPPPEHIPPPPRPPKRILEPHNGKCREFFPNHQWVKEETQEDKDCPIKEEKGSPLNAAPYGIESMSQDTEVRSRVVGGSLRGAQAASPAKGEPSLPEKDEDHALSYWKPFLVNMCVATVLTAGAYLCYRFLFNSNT

A549 = experiment: Cytotoxicity against human A549 cells at 10 uM after 96 hrs by MTT assay; type: functional, cell-based
A2780 = experiment: Cytotoxicity against human A2780 cells at 10 uM after 96 hrs by MTT assay; type: functional, cell-based
HCT-8 = experiment: Cytotoxicity against human HCT8 cells at 10 uM after 96 hrs by MTT assay; type: functional, cell-based
[2] = tested on: Peritoneal macrophage cell; experiment: Inhibition of LPS-induced TNFalpha secretion in C57BL/6J mouse peritoneal macrophages at 10 uM after 24 hrs; type: functional, cell-based
BGC-823 = experiment: Cytotoxicity against human BGC823 cells at 10 uM after 96 hrs by MTT assay; type: functional, cell-based
Bel-7402 = experiment: Cytotoxicity against human Bel7402 cells at 10 uM after 96 hrs by MTT assay; type: functional, cell-based

CC(C)=C[C@@H]1C[C@](O)([C@H]2CC[C@]3(C)[C@@H]2CC[C@@H]2[C@@]4(C)CC[C@H](O[C@@H]5OC[C@H](O)[C@H](O[C@@H]6OC[C@@H](O)[C@H](O)[C@H]6O)[C@H]5O[C@@H]5O[C@@H](C)[C@H](O)[C@@H](O)[C@H]5O)C(C)(C)[C@@H]4CC[C@]23C)C(=O)O1
inactive: inhibition [1] | Activity (A549) | Activity (A2780) | Activity (HCT-8) | inhibition [2] | Activity (BGC-823) | Activity (Bel-7402)

CC(=O)OC[C@H]1O[C@@H](O[C@H]2CC[C@]3(C)[C@H]4CC[C@@H]5[C@@H]([C@](O)(CO)CCC=C(C)C)CC[C@@]5(C)[C@]4(C)CC[C@H]3C2(C)C)[C@H](O[C@@H]2O[C@@H](C)[C@H](O)[C@@H](O)[C@H]2O)[C@@H](O[C@@H]2OC[C@@H](O)[C@H](O)[C@H]2O)[C@@H]1O
inactive: inhibition [1] | Activity (A549) | Activity (A2780) | Activity (HCT-8) | inhibition [2] | Activity (BGC-823) | Activity (Bel-7402)

CC(C)=C[C@H]1C[C@](O)([C@H]2CC[C@]3(C)[C@@H]2CC[C@@H]2[C@@]4(C)CC[C@H](O[C@@H]5OC[C@H](O)[C@H](O[C@@H]6OC[C@@H](O)[C@H](O)[C@H]6O)[C@H]5O[C@@H]5O[C@@H](C)[C@H](O)[C@@H](O)[C@H]5O)C(C)(C)[C@@H]4CC[C@]23C)C(=O)O1
inactive: inhibition [1] | Activity (A549) | Activity (A2780) | Activity (HCT-8) | inhibition [2] | Activity (BGC-823) | Activity (Bel-7402)

CC(C)=C[C@@H]1C[C@](O)([C@H]2CC[C@]3(C)[C@@H]2CC[C@@H]2[C@@]4(C)CC[C@H](O[C@@H]5O[C@H](CO)[C@@H](O)[C@H](O[C@@H]6OC[C@@H](O)[C@H](O)[C@H]6O)[C@H]5O)C(C)(C)[C@@H]4CC[C@]23C)C(=O)O1
inactive: inhibition [1] | Activity (A549) | Activity (A2780) | Activity (HCT-8) | inhibition [2] | Activity (BGC-823) | Activity (Bel-7402)

CC(C)=CCC[C@@](O)(CO)[C@H]1CC[C@]2(C)[C@@H]1CC[C@@H]1[C@@]3(C=O)CC[C@H](O[C@@H]4OC[C@H](O)[C@H](O[C@@H]5OC[C@@H](O)[C@H](O)[C@H]5O)[C@H]4O)C(C)(C)[C@@H]3CC[C@]12C
inactive: inhibition [1] | Activity (A549) | Activity (A2780) | Activity (HCT-8) | inhibition [2] | Activity (BGC-823) | Activity (Bel-7402)

CC(C)=CCC[C@@](O)(CO[C@@H]1O[C@H](CO)[C@@H](O)[C@H](O)[C@H]1O)[C@H]1CC[C@]2(C)[C@@H]1CC[C@@H]1[C@@]3(C)CC[C@H](O[C@@H]4OC[C@H](O)[C@H](O[C@@H]5OC[C@@H](O)[C@H](O)[C@H]5O)[C@H]4O[C@@H]4O[C@@H](C)[C@H](O)[C@@H](O)[C@H]4O)C(C)(C)[C@@H]3CC[C@]12C
inactive: inhibition [1] | Activity (A549) | Activity (A2780) | Activity (HCT-8) | inhibition [2] | Activity (BGC-823) | Activity (Bel-7402)

CC(C)=CCC[C@@](O)(CO)[C@H]1CC[C@]2(C)[C@@H]1CC[C@@H]1[C@@]3(C)CC[C@H](O[C@@H]4OC[C@H](O)[C@H](O[C@@H]5OC[C@@H](O)[C@H](O)[C@H]5O)[C@H]4O[C@@H]4O[C@@H](C)[C@H](O)[C@@H](O)[C@H]4O)C(C)(C)[C@@H]3CC[C@]12C
inactive: inhibition [1] | Activity (A549) | Activity (A2780) | Activity (HCT-8) | inhibition [2] | Activity (BGC-823) | Activity (Bel-7402)

CC(C)=CCC[C@@](O)(CO[C@@H]1O[C@H](CO[C@@H]2O[C@H](CO)[C@@H](O)[C@H](O)[C@H]2O)[C@@H](O)[C@H](O)[C@H]1O)[C@H]1CC[C@]2(C)[C@@H]1CC[C@@H]1[C@@]3(C)CC[C@H](O[C@@H]4O[C@H](CO)[C@@H](O)[C@H](O[C@@H]5OC[C@@H](O)[C@H](O)[C@H]5O)[C@H]4O[C@@H]4O[C@@H](C)[C@H](O)[C@@H](O)[C@H]4O)C(C)(C)[C@@H]3CC[C@]12C
inactive: inhibition [1] | Activity (A549) | Activity (A2780) | Activity (HCT-8) | inhibition [2] | Activity (BGC-823) | Activity (Bel-7402)

CC(C)=CCC[C@@](O)(CO[C@@H]1O[C@H](CO)[C@@H](O)[C@H](O)[C@H]1O)[C@H]1CC[C@]2(C)[C@@H]1CC[C@@H]1[C@@]3(C=O)CC[C@H](O[C@@H]4O[C@H](CO)[C@@H](O)[C@H](O[C@@H]5OC[C@@H](O)[C@H](O)[C@H]5O)[C@H]4O[C@@H]4O[C@@H](C)[C@H](O)[C@@H](O)[C@H]4O)C(C)(C)[C@@H]3CC[C@]12C
inactive: inhibition [1] | Activity (A549) | Activity (A2780) | Activity (HCT-8) | inhibition [2] | Activity (BGC-823) | Activity (Bel-7402)
